In patent publication US6495529B1 (Warner-Lambert Company, priority 1998, dated 2002):

Legend:
Swiss-Webster mice = assay: Locomotor stimulant and depressant effects in mice; settings: mice, i.p.
Protocol: Male Swiss-Webster mice (HSD ND4, Harlan Sprague Dawley, Houston, Tex.) aged 2-3 months were used in these studies. Each dose group consisted of 8 mice. The mice were housed 2 to 4 per cage in 30.4×22.9×15.2 cm clear polycarbonate cages with food and water available ad libitum for at least one week prior to locomotor activity testing. The colony was maintained at 23±1° C., on a normal light-dark cycle beginning at 0700 hr. All testing took place during the light portion of the light-dark cycle.
Horizontal (forward movement) locomotor activity was measured using a standardized, optical activity monitoring system [Model KXYZCM (16), Omnitech Electronics, Columbus, Ohio]. Activity was monitored in forty 40.5×40.5×30.5 cm clear acrylic chambers that where housed in sets of two within larger sound-attenuating chambers. A panel of 16 infrared beams and corresponding photodetectors were spaced 2 cm apart along the sides and 2.4 cm above the floor of each activity chamber. A 7.5-W incandescent light above each chamber provided dim illumination via a rheostat set to 20% of full scale. Fans provided an 80-dB ambient noise level within the chamber.
(+)-Amphetamine was used as a positive control. The total horizontal distance traversed (cm) was recorded at 10 minute intervals for a 2-hour session. Separate groups of 8 mice were assigned to each dose or saline group, and dose-effect testing continued for each compound until maximal stimulant or depressant effects could be estimated. A separate control group was tested along with each compound.
Using TableCurve 2D v2.03 (Jandel Scientific), the mean average total distance traversed (cm/10 min) for that period was fit to a 3-parameter logistic peak function of log10 dose (with the constant set to the mean of the saline group), and the maximum effect estimated from the resulting curve. The ED50 (dose producing ½ maximal stimulant activity) was estimated from a linear regression against log10 dose of the ascending portion of the dose-effect curve. The stimulant efficacy was the peak effect of the compound (cm/10 min) as estimated from the logistic peak function, minus the mean control distance traveled (cm/10 min), and was expressed for each stimulant compound as a ratio to the stimulant efficacy determined for (+)-amphetamine.
The mean average total distance traversed (cm/10 min) for that period were fit to a linear function of log10 dose of the descending portion of the dose-effect curve. […] Efficacy was the ratio of maximal depressant effect to maximum possible depression for each compound (mean average total distance of the control group minus the lowest mean total distance, expressed as a ratio to the control group total distance).
Time course data for each compound were considered in 2-way analyses of variance with dose as a between-group and time as a within-group factor. The dose-effect data were considered in 1-way analyses of variance, and planned individual comparisons were conduced between each dose and the saline control group. Interaction studies were considered in 2-way analyses of variance, with Pretreatment and Test dose as the factors.

α1-receptors = format: binding, dog; settings: read-out: Alpha-1 Ki
Protocol: The lungs of mongrel dogs were separated from cartilaginous airways and major blood vessels, weighted, chopped and placed into 10 volumes of ice-cold buffered sucrose (50 mM Tris-HCl pH 7.4, 1 mM EGTA, 0.32 M Sucrose). The tissue was then homogenized in a Polytron tissue homogenizer. The homogenate was filtered through two layers of cheesecloth, and the filtrate was dounced three times using a Con-Turque Potter homogenizer. […] The supernatant was recentrifuged at 30,000×g for 30 min at 4° C. and the resulting pellet was washed and resuspended in 10 volumes of Tris buffer (50 mM Tris HCL, pH 7.4, 1 mM EGTA) and incubated at 37° C. for 30 min in a shaking water bath. The suspension was centrifuged at 4° C., at 30,000×g for 30 min and the resulting pellet washed in 10 volumes of Tris buffer. […] Protein concentration was then determined by the Lowry method and the final suspension was adjusted to 10 mg of protein/ml, aliquoted and stored at −90° C.
Nonspecific binding was determined for each concentration point in separate incubations, with 10 μM phentolamine. Each experimental point was determined in triplicate. […] All binding assay incubations were terminated by rapid dilution with 2 ml of ice-cold wash buffer (50 mM Tris-HCl, pH 7.4) and filtration through Whatman GF/B filters using Brandel receptor-binding harvester.
All data were analyzed with the aid of microcomputer nonlinear curve fitting programs (PRISM 2.0, Graphpad Software, San Diego Calif.).
The receptors resident in each of the three membrane preparations were evaluated by standard saturation analysis following the addition of increasing concentrations of the appropriate radioligand. […]

mongrel dogs = assay: Intravenous dose increasing mean arterial pressure 10% in anesthetized dogs; settings: anesthetized dog, i.v.
[1] = system: New Zealand white rabbits; assay: Intraocular pressure (IOP) after topical application to rabbit eye
Sprague Dawley rats = assay: Nasal airway pressure in normal (non-histamine-challenged) rats; settings: for Mean Decrease in Nasal Airway Pressure: i.v.
[2] = system: New Zealand white rabbits; assay: Pupil diameter / mydriasis after topical application to rabbit eye
rats = assay: Dosage that raised mean arterial pressure 10% in rat; format: in vivo
[3] = drug 1% topical, drug treated eye (T), 0.5 hr
[4] = drug 1% topical, drug treated eye (T), 1 hr
[5] = drug 1% topical, drug treated eye (T), 3 hr
[6] = drug 1% topical, drug treated eye (T), 5 hr
[7] = drug 1% topical, drug treated eye (T), −0.5 hr (pre-treatment)
[8] = drug 1% topical, drug treated eye (T), −1 hr (pre-treatment)
[9] = drug 1% topical, untreated contralateral eye (U), 0.5 hr
[10] = drug 1% topical, untreated contralateral eye (U), 1 hr
[11] = drug 1% topical, untreated contralateral eye (U), 3 hr
[12] = drug 1% topical, untreated contralateral eye (U), 5 hr
[13] = drug 1% topical, untreated contralateral eye (U), −0.5 hr (pre-treatment)
[14] = drug 1% topical, untreated contralateral eye (U), −1 hr (pre-treatment), mean ± S.E.
[15] = drug 2% topical, drug treated eye (T), 0.5 hr
[16] = drug 2% topical, drug treated eye (T), 1 hr
[17] = drug 2% topical, drug treated eye (T), 3 hr
[18] = drug 2% topical, drug treated eye (T), 5 hr
[19] = drug 2% topical, drug treated eye (T), −0.5 hr (pre-treatment)
[20] = drug 2% topical, drug treated eye (T), −1 hr (pre-treatment)
[21] = drug 2% topical, untreated contralateral eye (U), 0.5 hr
[22] = drug 2% topical, untreated contralateral eye (U), 1 hr
[23] = drug 2% topical, untreated contralateral eye (U), 3 hr
[24] = drug 2% topical, untreated contralateral eye (U), 5 hr
[25] = drug 2% topical, untreated contralateral eye (U), −0.5 hr (pre-treatment)
[26] = drug 2% topical, untreated contralateral eye (U), −1 hr (pre-treatment)

How did the “Depression Potency (ID50, dose resulting in ½ the maximal depressant effect)” value (Swiss-Webster mice) turn out when CNC[C@H](O)c1cccc(O)c1 [(−)-phenylephrine] was run?
Its value is 2.3 mg/kg.

What about the “Depression Time (30-min period following injection in which the maximal depression occurred)” value (Swiss-Webster mice) of the same compound?
Its value is 0 to 30 min.

And the “Stimulation Time (30-min period following injection in which the maximal stimulant effect occurred)” value (Swiss-Webster mice)?
The value was 60 to 90 min.

What about the “locomotor depressant effect (in words)” value (Swiss-Webster mice; 2-hour session) of the same compound?
The value was “some locomotor depression”.

What about the “locomotor stimulant effect (in words)” value (Swiss-Webster mice; 2-hour session) of the same compound?
Its value is “Little or no stimulant effects”.

What about the Ki (α1-receptors) of the same compound?
The Ki was 3 µM.

And the “Intravenous Dose Needed to Increase MAP 10%” value (mongrel dogs)?
The value was 0.01 mg/kg.

And the IOP [1, 3]?
The IOP was 24 ± 0.6 mmHg.

What about the IOP [1, 4] of the same compound?
The IOP was 24 ± 1.0 mmHg.

What about the IOP [1, 5] of the same compound?
Its IOP is 23 ± 1.5 mmHg.

What about the IOP [1, 6] of the same compound?
Its IOP is 21 ± 1.9 mmHg.

And the IOP [1, 7]?
Its IOP is 16 ± 1.5 mmHg.

And the IOP [1, 8]?
The IOP was 20 ± 1.6 mmHg.

And the IOP [1, 9]?
The IOP was 18 ± 1.6 mmHg.

What about the IOP [1, 10] of the same compound?
Its IOP is 19 ± 1.3 mmHg.

What about the IOP [1, 11] of the same compound?
Its IOP is 20 ± 1.9 mmHg.

And the IOP [1, 12]?
Its IOP is 19 ± 1.7 mmHg.

And the IOP [1, 13]?
Its IOP is 15 ± 2.1 mmHg.

And the IOP [1, 14]?
The IOP was 16 ± 1.0 mmHg.

What about the IOP [1, 15] of the same compound?
Its IOP is 12 ± 0.8 mmHg.

And the IOP [1, 16]?
The IOP was 14 ± 2.0 mmHg.

And the IOP [1, 17]?
The IOP was 16 ± 0.8 mmHg.

What about the IOP [1, 18] of the same compound?
The IOP was 14 ± 1.3 mmHg.

And the IOP [1, 19]?
The IOP was 15 ± 1.5 mmHg.

What about the IOP [1, 20] of the same compound?
The IOP was 18 ± 1.6 mmHg.

And the IOP [1, 21]?
The IOP was 20 ± 2.0 mmHg.

And the IOP [1, 22]?
Its IOP is 20 ± 2.4 mmHg.

What about the IOP [1, 23] of the same compound?
The IOP was 14 ± 1.7 mmHg.

What about the IOP [1, 24] of the same compound?
The IOP was 14 ± 2.0 mmHg.

What about the IOP [1, 25] of the same compound?
Its IOP is 17 ± 1.9 mmHg.

And the IOP [1, 26]?
Its IOP is 17 ± 1.9 mmHg.

And the “Mean Decrease in Nasal Airway Pressure” value (Sprague Dawley rats; 5% of the dose that increased MAP 10%, mean ± SEM)?
Its value is −1.6 ± 0.9 mm water.

And the “Mean Decrease in Nasal Airway Pressure” value (Sprague Dawley rats; 10% of the dose that increased MAP 10%)?
Its value is −4.8 ± 0.8 mm water.

What about the “Mean Decrease in Nasal Airway Pressure” value (Sprague Dawley rats; 25% of the dose that increased MAP 10%) of the same compound?
Its value is −12.1 ± 2.4 mm water.

And the “Mean Decrease in Nasal Airway Pressure” value (Sprague Dawley rats; 50% of the dose that increased MAP 10%)?
The value was −5.2 ± 1.6 mm water.

What about the “Mean decrease in nasal airway pressure, % Change” value (Sprague Dawley rats; 100% dose i.v., non-histamine-challenged rats) of the same compound?
Its value is −20.3%.

And the “Nasal airway pressure, Post Drug” value (Sprague Dawley rats; after 100% dose (dose raising MAP 10%) into jugular vein)?
Its value is 4 ± 0.2 mm H2O.

What about the “Nasal airway pressure, Control” value (Sprague Dawley rats; before drug, non-histamine-challenged rats) of the same compound?
The value was 5 ± 0.2 mm H2 O.

And the “Mydriatic Responses, TREATED EYE” value ([2]; 1% solution)?
Its value is “++ (++ = 2-4 mm change)”.

What about the “Mydriatic Responses, UNTREATED EYE” value ([2]; 1% solution) of the same compound?
Its value is 0.

And the “Mydriatic Responses, TREATED EYE” value ([2]; 2% solution)?
Its value is “+++ (+++ >4 mm change)”.

And the “Mydriatic Responses, UNTREATED EYE” value ([2]; 2% solution)?
Its value is “+++ (+++ >4 mm change)”.

And the “Pupil Diameter” value [2, 3]?
The value was 7 ± 0.4 mm.

What about the “Pupil Diameter” value [2, 4] of the same compound?
Its value is 9 ± 0.4 mm.

And the “Pupil Diameter” value [2, 5]?
The value was 9 ± 0.4 mm.

And the “Pupil Diameter” value [2, 6]?
Its value is 9 ± 0.4 mm.

What about the “Pupil Diameter” value [2, 7] of the same compound?
Its value is 6 ± 0.4 mm.

What about the “Pupil Diameter” value [2, 8] of the same compound?
Its value is 6 ± 0.4 mm.

And the “Pupil Diameter” value [2, 9]?
The value was 6 ± 0.4 mm.

And the “Pupil Diameter” value [2, 10]?
The value was 6 ± 0.4 mm.

What about the “Pupil Diameter” value [2, 11] of the same compound?
Its value is 6 ± 0.4 mm.

What about the “Pupil Diameter” value [2, 12] of the same compound?
Its value is 6 ± 0.4 mm.

What about the “Pupil Diameter” value [2, 13] of the same compound?
Its value is 6 ± 0.4 mm.

And the “Pupil Diameter” value [2, 14]?
Its value is 6 ± 0.4 mm.

And the “Pupil Diameter” value [2, 15]?
The value was 12 ± 0.2 mm.

What about the “Pupil Diameter” value [2, 16] of the same compound?
Its value is 12 ± 0.2 mm.

And the “Pupil Diameter” value [2, 17]?
The value was 12 ± 0.2 mm.

And the “Pupil Diameter” value [2, 18]?
Its value is 12 ± 0.2 mm.

And the “Pupil Diameter” value [2, 19]?
The value was 6 ± 0.2 mm.

What about the “Pupil Diameter” value [2, 20] of the same compound?
Its value is 6 ± 0.2 mm.

And the “Pupil Diameter” value [2, 21]?
The value was 12 ± 0.2 mm.

And the “Pupil Diameter” value [2, 22]?
Its value is 12 ± 0.2 mm.

What about the “Pupil Diameter” value [2, 23] of the same compound?
Its value is 12 ± 0.2 mm.

What about the “Pupil Diameter” value [2, 24] of the same compound?
The value was 12 ± 0.2 mm.

And the “Pupil Diameter” value [2, 25]?
Its value is 6 ± 0.2 mm.

And the “Pupil Diameter” value [2, 26]?
Its value is 6 ± 0.2 mm.

And the “Dosage of Enantiomer that Raised Mean Arterial Pressure 10%, Rat” value (rats)?
Its value is 3 to 5 µg.
